Experimental findings from patent publication US20250163104A1, “MACROCYCLIC IMMUNOMODULATORS” (priority 2021, published 2025) are described below.

SMILES strings stand for the structures. Where a SMILES comes first, the peptide text is derived from it. Bridges are numbered along the chain shown (N, C = ends). [ ]: non-standard residue; d: D form. Bip = N[C@@H](Cc1ccc(-c2ccccc2)cc1)C(=O)O; Orn = NCCC[C@H](N)C(=O)O; Dab = NCC[C@H](N)C(=O)O; Dap = NC[C@H](N)C(=O)O

T1 sequence (Q15116 25-288): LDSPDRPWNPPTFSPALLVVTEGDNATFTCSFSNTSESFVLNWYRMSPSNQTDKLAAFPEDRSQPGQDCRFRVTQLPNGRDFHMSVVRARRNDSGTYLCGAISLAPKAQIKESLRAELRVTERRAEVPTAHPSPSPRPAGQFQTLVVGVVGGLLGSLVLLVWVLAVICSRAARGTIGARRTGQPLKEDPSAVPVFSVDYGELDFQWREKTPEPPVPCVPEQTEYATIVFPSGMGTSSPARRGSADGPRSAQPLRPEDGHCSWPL

The first assay concerns the target T1, human PD-1 / PD-L1-Ig binding on Jurkat cell line over-expressing human PD-1 (Jurkat-PD-1) (Homo sapiens, UniProt Q15116).
T1 construct: expressed in transfected cells; host or cells: Jurkat
Put plainly: Jurkat-PD-1 Cell Binding High-Content Screening Assay (CBA). It is filed as cell-based. The settings on record: Jurkat HPD1_PDL1 IC50, Jurkat-PD-1 cells, PE-labeled PD-L1-Ig 20 nM final. The method in brief: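 Cell-bound PE-labeled PD-L1-Ig (20 nM final, 1 h) measured by high-content imaging after fixation and Hoechst 33342 counterstain. Compound was applied first for 2 h at 37° C. to Jurkat cells over-expressing human PD-1 in DMEM with 10% FCS.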
With `CC(C)C[C@@H]1NC(=O)[C@H](Cc2c[nH]c3ccccc23)NC(=O)[C@H](CC(=O)O)NC(=O)[C@H](Cc2ccc(O)cc2)NC(=O)[C@H](Cc2ccccc2)NC(=O)CSC[C@@H](C(=O)NCC(N)=O)NC(=O)[C@H]([C@@H](C)O)NC(=O)[C@H](C(C)C)NC(=O)[C@H](CC(C)C)NC(=O)[C@H](CC(N)=O)NC(=O)[C@@H](C)NC(=O)[C@H](CN)NC(=O)[C@H](C(C)C)NC(=O)[C@H](Cc2ccc(-c3ccccc3)cc2)NC1=O` [Compound 1074] ({CH2CO}-FYDWL[Bip]V[Dap][dA]NLVTCG-NH2; thioether N-14), the half-maximal inhibitory concentration (IC50) (usually the point on the concentration scale where inhibition reaches its midpoint) was determined as 124 nM.

Still in this assay, the particulars now being: Jurkat-PD-1 cells, PE-labeled PD-L1-Ig 20 nM final; read-out: Jurkat HPD1_PDL1 IC50.
Consider `CC(C)C[C@@H]1NC(=O)[C@H](Cc2c[nH]c3ccccc23)NC(=O)[C@H](CC(=O)O)NC(=O)[C@H](Cc2ccc(O)cc2)NC(=O)[C@H](Cc2ccccc2)NC(=O)CSC[C@@H](C(=O)NCC(N)=O)NC(=O)[C@H](CO)NC(=O)[C@H](C(C)C)NC(=O)[C@H](CC(C)C)NC(=O)[C@H](CC(N)=O)NC(=O)[C@@H](CC(C)C)NC(=O)[C@H](CCN)NC(=O)[C@H](C(C)C)NC(=O)[C@H](Cc2ccc(-c3ccccc3)cc2)NC1=O` [Compound 1059] ({CH2CO}-FYDWL[Bip]V[Dab][dL]NLVSCG-NH2; thioether N-14), for which the half-inhibitory concentration (IC50) worked out at 28.5 nM.
Take `CC(C)C[C@@H]1NC(=O)[C@H](Cc2c[nH]c3ccccc23)NC(=O)[C@H](CC(=O)O)NC(=O)[C@H](Cc2ccc(O)cc2)NC(=O)[C@H](Cc2ccccc2)NC(=O)CSC[C@@H](C(=O)NCC(N)=O)NC(=O)[C@H]([C@@H](C)O)NC(=O)[C@H](C(C)C)NC(=O)[C@H](CC(C)C)NC(=O)[C@H](CCN)NC(=O)[C@@H](CC(C)C)NC(=O)[C@H](CCN)NC(=O)[C@H](C(C)C)NC(=O)[C@H](Cc2ccc(-c3ccccc3)cc2)NC1=O` [Compound 1060] ({CH2CO}-FYDWL[Bip]V[Dab][dL][Dab]LVTCG-NH2; thioether N-14): the half-inhibitory concentration (IC50) worked out at 16.4 nM.
`CC(C)C[C@@H]1NC(=O)[C@H](Cc2c[nH]c3ccccc23)NC(=O)[C@H](CC(=O)O)NC(=O)[C@H](Cc2ccc(O)cc2)NC(=O)[C@H](Cc2ccccc2)NC(=O)CSC[C@@H](C(=O)N[C@@H](C)C(N)=O)NC(=O)[C@H](CO)NC(=O)[C@H](C(C)C)NC(=O)[C@H](CC(C)C)NC(=O)[C@H](CCN)NC(=O)[C@@H](CC(C)C)NC(=O)[C@H](CCN)NC(=O)[C@H](C(C)C)NC(=O)[C@H](Cc2ccc(-c3ccccc3)cc2)NC1=O` [Compound 1061] ({CH2CO}-FYDWL[Bip]V[Dab][dL][Dab]LVSCA-NH2; thioether N-14): the 50% inhibitory concentration (IC50) worked out at 8.8 nM.
Still for that read-out and setting: to `CC(C)C[C@@H]1NC(=O)[C@H](Cc2c[nH]c3ccccc23)NC(=O)[C@H](CC(=O)O)NC(=O)[C@H](Cc2ccc(O)cc2)NC(=O)[C@H](Cc2ccccc2)NC(=O)CSC[C@@H](C(=O)N[C@@H](C)C(N)=O)NC(=O)[C@H]([C@@H](C)O)NC(=O)[C@H](C(C)C)NC(=O)[C@H](CC(C)C)NC(=O)[C@H](CCN)NC(=O)[C@@H](CC(C)C)NC(=O)[C@H](CCN)NC(=O)[C@H](C(C)C)NC(=O)[C@H](Cc2ccc(-c3ccccc3)cc2)NC1=O` [Compound 1062] ({CH2CO}-FYDWL[Bip]V[Dab][dL][Dab]LVTCA-NH2; thioether N-14) belongs 12.4 nM; to `CC(C)C[C@@H]1NC(=O)[C@H](Cc2c[nH]c3ccccc23)NC(=O)[C@H](CC(=O)O)NC(=O)[C@H](Cc2ccc(O)cc2)NC(=O)[C@H](Cc2ccccc2)NC(=O)CSC[C@@H](C(=O)NCC(N)=O)NC(=O)[C@H](CO)NC(=O)[C@H](C(C)C)NC(=O)[C@H](CC(C)C)NC(=O)[C@H](CCN)NC(=O)[C@@H](CC(C)C)NC(=O)[C@H](CCN)NC(=O)[C@H](C(C)C)NC(=O)[C@H](Cc2ccc(-c3ccccc3)cc2)NC1=O` [Compound 1063] ({CH2CO}-FYDWL[Bip]V[Dab][dL][Dab]LVSCG-NH2; thioether N-14), 19.8 nM.
As to `CC(C)C[C@@H]1NC(=O)[C@H](Cc2c[nH]c3ccccc23)NC(=O)[C@H](CC(=O)O)NC(=O)[C@H](Cc2ccc(O)cc2)NC(=O)[C@H](Cc2ccccc2)NC(=O)CSC[C@@H](C(=O)NCC(N)=O)NC(=O)[C@H]([C@@H](C)O)NC(=O)[C@H](C(C)C)NC(=O)[C@H](CC(C)C)NC(=O)[C@H](CC(N)=O)NC(=O)[C@@H](CC(C)C)NC(=O)[C@H](CCCN)NC(=O)[C@H](C(C)C)NC(=O)[C@H](Cc2ccc(-c3ccccc3)cc2)NC1=O` [Compound 1064] ({CH2CO}-FYDWL[Bip]V[Orn][dL]NLVTCG-NH2; thioether N-14), the IC50 came out at 51.3 nM.
Still for that read-out and setting: as for `CC(C)C[C@@H]1NC(=O)[C@H](Cc2c[nH]c3ccccc23)NC(=O)[C@H](CC(=O)O)NC(=O)[C@H](Cc2ccc(O)cc2)NC(=O)[C@H](Cc2ccccc2)NC(=O)CSC[C@@H](C(=O)N[C@@H](C)C(N)=O)NC(=O)[C@H](CO)NC(=O)[C@H](C(C)C)NC(=O)[C@H](CC(C)C)NC(=O)[C@H](CC(N)=O)NC(=O)[C@@H](CC(C)C)NC(=O)[C@H](CCCN)NC(=O)[C@H](C(C)C)NC(=O)[C@H](Cc2ccc(-c3ccccc3)cc2)NC1=O` [Compound 1065] ({CH2CO}-FYDWL[Bip]V[Orn][dL]NLVSCA-NH2; thioether N-14), the figure is 12.8 nM.
Still for that read-out and setting: as for `CC(C)C[C@@H]1NC(=O)[C@H](Cc2c[nH]c3ccccc23)NC(=O)[C@H](CC(=O)O)NC(=O)[C@H](Cc2ccc(O)cc2)NC(=O)[C@H](Cc2ccccc2)NC(=O)CSC[C@@H](C(=O)N[C@@H](C)C(N)=O)NC(=O)[C@H]([C@@H](C)O)NC(=O)[C@H](C(C)C)NC(=O)[C@H](CC(C)C)NC(=O)[C@H](CC(N)=O)NC(=O)[C@@H](CC(C)C)NC(=O)[C@H](CCCN)NC(=O)[C@H](C(C)C)NC(=O)[C@H](Cc2ccc(-c3ccccc3)cc2)NC1=O` [Compound 1066] ({CH2CO}-FYDWL[Bip]V[Orn][dL]NLVTCA-NH2; thioether N-14), the figure is 42.2 nM.
Same read-out and setting: as for `CC(C)C[C@@H]1NC(=O)[C@H](Cc2c[nH]c3ccccc23)NC(=O)[C@H](CC(=O)O)NC(=O)[C@H](Cc2ccc(O)cc2)NC(=O)[C@H](Cc2ccccc2)NC(=O)CSC[C@@H](C(=O)NCC(N)=O)NC(=O)[C@H](CO)NC(=O)[C@H](C(C)C)NC(=O)[C@H](CC(C)C)NC(=O)[C@H](CC(N)=O)NC(=O)[C@@H](CC(C)C)NC(=O)[C@H](CCCN)NC(=O)[C@H](C(C)C)NC(=O)[C@H](Cc2ccc(-c3ccccc3)cc2)NC1=O` [Compound 1067] ({CH2CO}-FYDWL[Bip]V[Orn][dL]NLVSCG-NH2; thioether N-14), the figure is 22.2 nM; as for `CC(C)C[C@@H]1NC(=O)[C@H](Cc2c[nH]c3ccccc23)NC(=O)[C@H](CC(=O)O)NC(=O)[C@H](Cc2ccc(O)cc2)NC(=O)[C@H](Cc2ccccc2)NC(=O)CSC[C@@H](C(=O)NCC(N)=O)NC(=O)[C@H]([C@@H](C)O)NC(=O)[C@H](C(C)C)NC(=O)[C@H](CC(C)C)NC(=O)[C@H](CCN)NC(=O)[C@@H](CC(C)C)NC(=O)[C@H](CCCN)NC(=O)[C@H](C(C)C)NC(=O)[C@H](Cc2ccc(-c3ccccc3)cc2)NC1=O` [Compound 1068] ({CH2CO}-FYDWL[Bip]V[Orn][dL][Dab]LVTCG-NH2; thioether N-14), 17.4 nM.
For `CC(C)C[C@@H]1NC(=O)[C@H](Cc2c[nH]c3ccccc23)NC(=O)[C@H](CC(=O)O)NC(=O)[C@H](Cc2ccc(O)cc2)NC(=O)[C@H](Cc2ccccc2)NC(=O)CSC[C@@H](C(=O)N[C@@H](C)C(N)=O)NC(=O)[C@H](CO)NC(=O)[C@H](C(C)C)NC(=O)[C@H](CC(C)C)NC(=O)[C@H](CCN)NC(=O)[C@@H](CC(C)C)NC(=O)[C@H](CCCN)NC(=O)[C@H](C(C)C)NC(=O)[C@H](Cc2ccc(-c3ccccc3)cc2)NC1=O` [Compound 1069] ({CH2CO}-FYDWL[Bip]V[Orn][dL][Dab]LVSCA-NH2; thioether N-14), the IC50 amounted to 13.9 nM.
Take `CC(C)C[C@@H]1NC(=O)[C@H](Cc2c[nH]c3ccccc23)NC(=O)[C@H](CC(=O)O)NC(=O)[C@H](Cc2ccc(O)cc2)NC(=O)[C@H](Cc2ccccc2)NC(=O)CSC[C@@H](C(=O)NCC(N)=O)NC(=O)[C@H]([C@@H](C)O)NC(=O)[C@H](C(C)C)NC(=O)[C@H](CC(C)C)NC(=O)[C@H](CC(N)=O)NC(=O)[C@@H](CC(C)C)NC(=O)[C@H](CN)NC(=O)[C@H](C(C)C)NC(=O)[C@H](Cc2ccc(-c3ccccc3)cc2)NC1=O` [Compound 1070] ({CH2CO}-FYDWL[Bip]V[Dap][dL]NLVTCG-NH2; thioether N-14): the IC50 turned out to be 38.8 nM.
In the case of `CC(C)C[C@@H]1NC(=O)[C@H](Cc2c[nH]c3ccccc23)NC(=O)[C@H](CC(=O)O)NC(=O)[C@H](Cc2ccc(O)cc2)NC(=O)[C@H](Cc2ccccc2)NC(=O)CSC[C@@H](C(=O)N[C@@H](C)C(N)=O)NC(=O)[C@H]([C@@H](C)O)NC(=O)[C@H](C(C)C)NC(=O)[C@H](CC(C)C)NC(=O)[C@H](CCN)NC(=O)[C@@H](CC(C)C)NC(=O)[C@H](CCCN)NC(=O)[C@H](C(C)C)NC(=O)[C@H](Cc2ccc(-c3ccccc3)cc2)NC1=O` [Compound 1072] ({CH2CO}-FYDWL[Bip]V[Orn][dL][Dab]LVTCA-NH2; thioether N-14), the IC50 came to 27.1 nM.
Same read-out and setting: to `CC(C)C[C@@H]1NC(=O)[C@H](Cc2c[nH]c3ccccc23)NC(=O)[C@H](CC(=O)O)NC(=O)[C@H](Cc2ccc(O)cc2)NC(=O)[C@H](Cc2ccccc2)NC(=O)CSC[C@@H](C(=O)NCC(N)=O)NC(=O)[C@H](CO)NC(=O)[C@H](C(C)C)NC(=O)[C@H](CC(C)C)NC(=O)[C@H](CCN)NC(=O)[C@@H](CC(C)C)NC(=O)[C@H](CCCN)NC(=O)[C@H](C(C)C)NC(=O)[C@H](Cc2ccc(-c3ccccc3)cc2)NC1=O` [Compound 1073] ({CH2CO}-FYDWL[Bip]V[Orn][dL][Dab]LVSCG-NH2; thioether N-14) belongs 10 nM; to `CC(C)C[C@@H]1NC(=O)[C@H](Cc2c[nH]c3ccccc23)NC(=O)[C@H](CC(=O)O)NC(=O)[C@H](Cc2ccc(O)cc2)NC(=O)[C@H](Cc2ccccc2)NC(=O)CSC[C@@H](C(=O)N[C@@H](C)C(N)=O)NC(=O)[C@H](CO)NC(=O)[C@H](C(C)C)NC(=O)[C@H](CC(C)C)NC(=O)[C@H](CC(N)=O)NC(=O)[C@@H](C)NC(=O)[C@H](CN)NC(=O)[C@H](C(C)C)NC(=O)[C@H](Cc2ccc(-c3ccccc3)cc2)NC1=O` [Compound 1075] ({CH2CO}-FYDWL[Bip]V[Dap][dA]NLVSCA-NH2; thioether N-14), 50.1 nM.
